The text below walks through data of patent US20090291945A1, “CYSTEINE PROTEASE INHIBITORS” (Teijin Pharma Limited, priority 2008, published 2009).

Each structure is given as a SMILES string.

This assay deals with T1, cathepsin K (Homo sapiens, UniProt P43235).
T1 construct: the active enzyme was obtained as the enzyme fraction by using detergent containing lysis buffer; made in house; host or cells: HEK293T (GenHunter Corporation), transient expression; detergent lysate used as enzyme fraction
T1 sequence (P43235 115-329): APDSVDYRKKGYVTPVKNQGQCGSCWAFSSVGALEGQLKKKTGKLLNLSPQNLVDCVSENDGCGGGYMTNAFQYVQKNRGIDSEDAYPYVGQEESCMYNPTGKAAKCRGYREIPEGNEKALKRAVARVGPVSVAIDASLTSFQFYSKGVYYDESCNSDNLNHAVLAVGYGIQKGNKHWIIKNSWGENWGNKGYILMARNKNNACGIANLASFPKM
In words: Cathepsin K inhibitory activity (fluorescent substrate Z-Leu-Arg-MCA). Format: biochemical. The following applies: enzyme expressed in HEK293T; 15 min preincubation, 30 min reaction at room temperature, pH 5.5; read-out: Activity Intensity (cathepsin K inhibitory activity, pIC50 class) (converted). The method, then:
Cathepsin K inhibitory activities of the compounds synthesized according to the methods of the above examples were measured.
Cathepsin K used for evaluation of inhibitory activity was transiently expressed in an animal cell HEK293T (made by GenHunter Corporation) and the active enzyme was obtained as the enzyme fraction by using detergent containing lysis buffer.
The enzyme solution A was prepared at 2.1 times final concentration by diluting the enzyme fraction with assay buffer (50 mM sodium acetate, 50 mM sodium chloride, 2 mM DTT, pH 5.5). The test compound solutions B were prepared at 50 times final target concentrations by dimethylsulfoxide (DMSO). As a substrate solution C, a solution of a fluorescent substrate, benzyloxycarbonyl-L-leucyl-L-arginyl-4-methyl-coumaryl-7-amide (Z-Leu-Arg-MCA (Peptide Institute Inc.), was prepared at 10 μM by an assay buffer.
To the enzyme solution A (38.4 μL) were added the test compound solutions B (1.6 μL) and mixed individually. The mixtures were incubated at room temperature for 15 minutes. To the incubated solutions were added the substrate solution C (40 μL) and the mixtures were reacted at room temperature for 30 minutes respectively. The fluorescence intensities of the enzyme reaction solutions were measured at excitation wavelength of 355 nm and measurement wavelength of 460 nm and the enzyme activities were calculated from these fluorescence intensities caused by 7-amino-4-methylcoumarine released. The enzyme activity with using DMSO instead of the test compound solution B was taken as 100% and the inhibitory rates at each concentration of the test compound were calculated. The […] response curve was fitted to the plots. The 50% inhibitory concentration against cathepsin K was calculated from this curve.
Note that the symbols (+, ++, and +++) in this table represent the inhibitory activity values as below. Here, pIC50 is the value representing a negative logarithm of IC50, (−log10(IC50)). IC50 is a 50% inhibitory concentration.
Take `CC(C)C[C@H](N[C@@H](c1ccccc1)C(F)(F)F)C(=O)N[C@@H](CCOCc1ccccc1)CNc1ccc(N2CCOCC2)cc1` [Compound 87]: the IC50 is no more than 3.16 nM.
The value for `CC[C@@H](CNc1ccc(OCC(=O)NCCO)cc1OC)NC(=O)[C@H](CC(C)(C)F)N[C@@H](c1ccccc1)C(F)(F)F` [Compound 137] was no more than 3.16 nM; that for `CC[C@@H](CNc1ccc(-n2cccn2)cc1)NC(=O)[C@H](CC(C)C)N[C@@H](c1ccccc1)C(F)(F)F` [Compound 47] was 31.6 to 10000 nM; that for `CC[C@@H](CNc1ccc(N2C[C@@H](C)O[C@@H](C)C2)cc1)NC(=O)[C@H](CC(C)C)N[C@@H](c1ccccc1)C(F)(F)F` [Compound 51] was no more than 3.16 nM.
For `CC[C@@H](CNc1ccc(N2CCOCC2)cc1)NC(=O)[C@H](CC(C)C)N[C@@H](c1ccc(OCCOC)cc1)C(F)(F)F` [Compound 30] the value was no more than 3.16 nM; for `COc1ccc(NC[C@H](C)NC(=O)[C@H](CC(C)C)N[C@@H](c2cccnc2)C(F)(F)F)c(OC)c1` [Compound 78], 3.16 to 31.6 nM.
The value for `CC[C@@H](CNc1ccc(OC)cc1OC)NC(=O)[C@H](CC(C)C)N[C@@H](c1ccc(S(C)(=O)=O)cc1)C(F)(F)F` [Compound 23] was no more than 3.16 nM.
Consider `CC[C@@H](CNc1ccc(N2C[C@@H](C)O[C@@H](C)C2)cc1)NC(=O)[C@H](CC(C)C)N[C@@H](c1ccc(OC)nc1)C(F)(F)F` [Compound 52], for which the IC50 is no more than 3.16 nM.
With `CC[C@@H](CNc1ccc(OC)cc1OC)NC(=O)[C@@H](N[C@@H](c1ccccc1)C(F)(F)F)C1CCCCC1` [Compound 61], the IC50 was 31.6 to 10000 nM.
`CC[C@@H](CNc1ccc(-c2ccccc2)cc1)NC(=O)[C@H](CC(C)C)N[C@@H](c1ccccc1)C(F)(F)F` [Compound 45]: the IC50 is 31.6 to 10000 nM.
For `CC[C@@H](CNc1ccc(OCC(=O)O)cc1OC)NC(=O)[C@H](CC(C)C)N[C@@H](c1ccc(=O)[nH]c1)C(F)(F)F` [Compound 123] the value was 3.16 to 31.6 nM.
The value for `CC[C@@H](CNc1ccc(OCC(=O)N(C)OC)cc1OC)NC(=O)[C@H](CC(C)C)N[C@@H](c1ccccc1)C(F)(F)F` [Compound 89] was no more than 3.16 nM; that for `CC[C@@H](CNc1ccc(OC)cc1OC)NC(=O)[C@H](CC(C)C)N[C@@H](c1ccc(OC)nc1)C(F)(F)F` [Compound 25] was 3.16 to 31.6 nM; that for `CC[C@@H](CNc1ccc(N2CCC(C(=O)O)CC2)cc1)NC(=O)[C@H](CC(C)C)N[C@@H](c1ccc(OC)nc1)C(F)(F)F` [Compound 146] was no more than 3.16 nM.
For `CC[C@@H](CNc1ccc(OCc2ccccc2)cc1)NC(=O)[C@H](CC(C)C)N[C@@H](c1ccccc1)C(F)(F)F` [Compound 96] the value was 3.16 to 31.6 nM; for `CC[C@@H](CNc1ccc(N2CCOCC2)cc1)NC(=O)[C@H](CC(C)C)N[C@@H](c1ccc(S(C)(=O)=O)cc1)C(F)(F)F` [Compound 24], no more than 3.16 nM.
`CC[C@@H](CNc1ccc(OCC(F)(F)F)cc1)NC(=O)[C@H](CC(C)C)N[C@@H](c1ccccc1)C(F)(F)F` [Compound 90]: the IC50 was 31.6 to 10000 nM.
Consider `CC[C@@H](CNc1ccc2c(c1)OCO2)NC(=O)[C@H](CC(C)C)N[C@@H](c1ccccc1)C(F)(F)F` [Compound 99], for which the IC50 was 31.6 to 10000 nM.
The value for `CC[C@@H](CNc1ccc(N2CCCC2=O)cc1)NC(=O)[C@H](CC(C)C)N[C@@H](c1ccc(OC)nc1)C(F)(F)F` [Compound 54] was 3.16 to 31.6 nM; that for `CC(C)(F)C[C@H](N[C@@H](c1ccccc1)C(F)(F)F)C(=O)N[C@@H](CCC#N)CNc1ccc(N2CCOCC2)cc1` [Compound 94] was no more than 3.16 nM.
The value for `COc1ccc(NC[C@H](COCc2ccccc2)NC(=O)[C@H](CC(C)(C)F)N[C@@H](c2ccc(-c3ccc(S(C)(=O)=O)cc3)cc2)C(F)(F)F)cc1` [Compound 2, N-{(1R)-2-[(4-methoxyphenyl)amino]-1-[(phenylmethoxy)methyl]ethyl}(2S)-2-[((1S)-2,2,2-trifluoro-1-{4-[4-(methylsulfonyl)phenyl]phenyl}ethyl)amino]-4-fluoro-4-methylpentanamide] was 31.6 to 10000 nM; that for `CC[C@@H](CNc1ccc(OCC#N)cc1OC)NC(=O)[C@H](CC(C)(C)F)N[C@@H](c1ccccc1)C(F)(F)F` [Compound 161, (2S)—N-[(1S)-1-({[4-(cyanomethoxy)-2-methoxyphenyl]amino}methyl)propyl]-2-[((1S)-2,2,2-trifluoro-1-phenylethyl)amino]-4-fluoro-4-methylpentanamide] was no more than 3.16 nM.
For `CC(C)C[C@H](N[C@@H](c1ccccc1)C(F)(F)F)C(=O)N[C@H](CNc1ccc(N2CCOCC2)cc1)CC(=O)OCc1ccccc1` [Compound 69] the value was no more than 3.16 nM.
For `CC[C@@H](CNc1ccc(N2CCOCC2)cc1)NC(=O)[C@H](CC(C)C)N[C@@H](c1ccc(OC)nc1)C(F)(F)F` [Compound 26], the IC50 was no more than 3.16 nM.
With `CC[C@@H](CNc1ccc(OC)cc1OC)NC(=O)C1(N[C@@H](c2ccccc2)C(F)(F)F)CCCC1` [Compound 28], the IC50 is 31.6 to 10000 nM.
For `CCOC(=O)C1CCN(c2ccc(NC[C@H](CC)NC(=O)[C@H](CC(C)C)N[C@@H](c3ccc(OC)nc3)C(F)(F)F)cc2)CC1` [Compound 50] the value was no more than 3.16 nM; for `CC[C@@H](CNc1ccc(N2CCO[C@@H](C(=O)OC)C2)cc1)NC(=O)[C@H](CC(C)C)N[C@@H](c1ccccc1)C(F)(F)F` [Compound 56], no more than 3.16 nM.
For `CCOC(=O)C1CCN(c2ccc(NC[C@H](CC)NC(=O)[C@H](CC(C)(C)F)N[C@@H](c3ccccc3)C(F)(F)F)cc2)CC1` [Compound 55], the IC50 is no more than 3.16 nM.
The value for `CC[C@H](N[C@@H](CC(C)C)C(=O)N[C@@H](CCS(C)(=O)=O)CNc1ccc(OC)cc1OC)C(F)(F)F` [Compound 116] was 31.6 to 10000 nM.
In the case of `CC[C@@H](CNc1ccc(N2CCOCC2)cc1)NC(=O)[C@H](Cc1ccccc1)N[C@@H](c1ccccc1)C(F)(F)F` [Compound 58], the IC50 was 31.6 to 10000 nM.
Take `CCOC(=O)C1(C(C)C)CCN(c2ccc(NC[C@H](CC)NC(=O)[C@H](CC(C)C)N[C@@H](c3ccccc3)C(F)(F)F)cc2)CC1` [Compound 109]: the IC50 is no more than 3.16 nM.
For `COc1ccc(NC[C@H](CC(C)C)NC(=O)[C@H](Cc2ccccc2)N[C@@H](c2ccccc2)C(F)(F)F)c(OC)c1` [Compound 63] the value was 31.6 to 10000 nM; for `CC(C)C[C@H](N[C@@H](c1ccccc1)C(F)(F)F)C(=O)N[C@@H](CCC#N)CNc1ccc(N2CCOCC2)cc1` [Compound 92], no more than 3.16 nM.
For `CC[C@@H](CNc1ccc(OCCCCC(=O)O)cc1OC)NC(=O)[C@H](CC(C)C)N[C@@H](c1ccccc1)C(F)(F)F` [Compound 156] the value was no more than 3.16 nM; for `COc1ccc([C@H](N[C@@H](CC(C)C)C(=O)N[C@H](CNc2ccc(OC)cc2OC)CC(C)C)C(F)(F)F)cc1` [Compound 65], no more than 3.16 nM.
For `CC[C@@H](CNc1ccc(-n2nccc2C(=O)O)cc1)NC(=O)[C@H](CC(C)C)N[C@@H](c1ccc(OC)nc1)C(F)(F)F` [Compound 144] the value was 31.6 to 10000 nM; for `CC(C)C[C@H](N[C@@H](c1ccccc1)C(F)(F)F)C(=O)N[C@@H](CCNC(=O)OCc1ccccc1)CNc1ccc(N2CCOCC2)cc1` [Compound 105], no more than 3.16 nM.
With `CC[C@@H](CNc1ccc(OCCS(C)(=O)=O)cc1OC)NC(=O)[C@H](CC(C)C)N[C@@H](c1ccc(S(C)(=O)=O)cc1)C(F)(F)F` [Compound 40], the IC50 was 3.16 to 31.6 nM.
In the case of `CC(C)C[C@H](N[C@@H](c1ccccc1)C(F)(F)F)C(=O)N[C@@H](CCCO)CNc1ccc(N2CCOCC2)cc1` [Compound 125], the IC50 was 31.6 to 10000 nM.
For `COc1ccc(NC[C@H](CCS(C)(=O)=O)NC(=O)[C@H](CC(C)C)N[C@@H](c2ccc(S(C)(=O)=O)cc2)C(F)(F)F)c(OC)c1` [Compound 82] the value was 3.16 to 31.6 nM; for `CC(C)C[C@H](N[C@@H](c1ccccc1)C(F)(F)F)C(=O)N[C@H](CNc1ccc(N2CCOCC2)cc1)CN(C)C` [Compound 106], no more than 3.16 nM.
For `CC[C@@H](CNc1ccc(OCCCC(=O)OC)cc1OC)NC(=O)[C@H](CC(C)C)N[C@@H](c1ccccc1)C(F)(F)F` [Compound 85] the value was no more than 3.16 nM.
For `CC[C@@H](CNc1ccc(OCC(=O)O)cc1OC)NC(=O)[C@H](CC(C)C)N[C@@H](c1ccccc1)C(F)(F)F` [Compound 119] the value was no more than 3.16 nM.
With `CC[C@@H](CNc1ccc(-n2nccc2C(=O)O)cc1)NC(=O)[C@H](CC(C)C)N[C@@H](c1ccccc1)C(F)(F)F` [Compound 143], the IC50 was 31.6 to 10000 nM.
